In patent US10005731B2, “Modulators of the retinoid-related orphan receptor gamma (ROR-gamma) for use in the treatment of autoimmune and inflammatory diseases” (Glaxo Group Limited, priority 2012, dated 2018):
Structures can show the parent of a compound that is named as a salt. Where two headings read alike, the source gives them in different places.

Experiments:
RORγ = molecular target: T1, RORγ (Homo sapiens, UniProt P51449); assay: Jurkat cell luciferase assay (human IL17 promoter reporter, RORγt overexpression); assay type: cell-based; conditions: mean pIC50; detection limit of the assay 5
T1 construct: expressed in transfected cells
T1 sequence (P51449 1-497 isoform P51449-2): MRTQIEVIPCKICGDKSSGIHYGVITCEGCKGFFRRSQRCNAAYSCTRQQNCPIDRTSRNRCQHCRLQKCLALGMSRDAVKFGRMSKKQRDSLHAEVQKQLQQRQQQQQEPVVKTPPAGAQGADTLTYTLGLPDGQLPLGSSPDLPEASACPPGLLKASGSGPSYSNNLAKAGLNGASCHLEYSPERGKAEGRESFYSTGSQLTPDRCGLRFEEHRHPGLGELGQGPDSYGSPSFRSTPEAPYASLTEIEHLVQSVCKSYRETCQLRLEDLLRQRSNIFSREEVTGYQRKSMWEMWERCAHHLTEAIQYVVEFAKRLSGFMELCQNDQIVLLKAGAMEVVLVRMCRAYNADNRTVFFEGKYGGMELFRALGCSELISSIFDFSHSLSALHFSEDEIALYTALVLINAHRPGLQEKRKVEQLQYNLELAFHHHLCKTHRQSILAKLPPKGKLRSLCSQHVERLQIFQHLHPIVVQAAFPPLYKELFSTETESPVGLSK
Source text: RORγ is known to bind to a CNS (conserved non-coding sequences) enhancer element in the IL17 promoter. In this assay, RORγ activity is indirectly assessed using a luciferase reporter construct which contains the human IL17 promoter having the RORγ-specific CNS enhancer element. Inhibition of RORγ activity by a compound will result in a decrease in luciferase activity of Jurkat cells transfected with the reporter construct.
. For the 1.1 Kb fragment, PCR was used to amplify human IL17 proximal promoter region from genomic DNA of 293T cells using primers as follows: forward primer, 5′-[…]-3′ (SEQ ID NO. 4) (Xhol site is underlined) and reverse primer, 5′-[…]-3′ SEQ ID NO. 5) (HindIII site is underlined). The 1.1 kb DNA bands were excised, purified, and inserted into pMD19-T Simple Vector (Takara). After DNA sequencing confirmation, the 1.1 kb DNA was digested with XhoI and HindIII and inserted into XhoI/HindIII sites of pGL4.31[luc2P/GAL4UAS/Hygro] (Promega) to generate the pIL17-lkb-luc reporter construct. For the 1.9 Kb fragment, PCR was used to amplify human IL17 promoter region from genomic DNA using primers as follows: forward primer, 5′-[…]-3′ (SEQ ID NO. 6) (KpnI site is underlined) and reverse primer, 5′-[…]-3′ (SEQ ID NO. 7)(XhoI site is underlined). The resulting 1.9 kb DNA bands were excised, gel purified, and cloned into a pMD19-T Simple Vector (Takara). […] The 1.9 kb DNA fragment was released by double digestion with KpnI and XhoI and inserted into pIL17-lkb-luc to generate the luciferase reporter plasmid “pIL17-3kb-CNS-luc.” To overexpress RORγt, the full-length cDNA of human RORγt identical to the published sequence NM13 001001523 was cloned into pcDNA3.1 at the KpnI-NotI cloning sites to generate the RORγt overexpression plasmid “CDNA3.1DhRORγ49-8”. […]
Compounds were dissolved in DMSO at three concentrations, 10 mM, 400 uM and 16 uM, and were dispensed into 384-wells assay plate at 40 nl, 12.5 nl, 5 nl respectively. The volume was adjusted with pure DMSO to a give a final uniform volume of 40 nl Jurkat cells described above were counted and centrifuged. […]

Mouse CD4+ cells = assay: Th17 cell differentiation assay (IL-17 ELISA); assay type: cell-based
Protocol: Mouse CD4+cells were purified using the CD4+ T Cell Isolation II Kit according to manufacturer's instructions (Miltenyi Biotec). 96 well plates were pre-coated with anti-mCD3 antibody. Un-coated wells were used as controls. CD4+ Cells were resuspended in RPMI 1640 complete medium and were added to the 96-well plates. Cytokine cocktail and the compound were then added to the wells. Antibodies and cytokines (all from R&D Systems) used in the assay were selected from the following: anti-mCD3; anti-mCD28; anti-mIFNγ; anti-mIL4; mIL-6; mIL-23; mIL-1β; hTGF-β1. The culture was incubated at 37° C. for 3 days and supernatants were collected for ELISA. The IL-17 ELISAs were performed according to manufacturer's instructions (R&D Systems). The results were analyzed using Prism software with non-linear regression to determine pIC50.

[1] = In vitro percutaneous study (Franz diffusion cells, aqueous cream); assay type: in vitro ADME, human; conditions: 1.0% w/w in aqueous cream pH=6, 5 mg/cm^2, human skin from three donors
Source text: The in vitro percutaneous study is aimed to predict the level of percutaneous penetration obtained for a compound in a topical formulation for psoriasis. This assay coupled with the intrinsic potency of the compound are used to predict the likelihood of success of a compound to engage the target. The higher the ratio of the percutaneous penetration to the intrinsic potency, the higher the ratio of local skin concentration to the intrinsic potency and therefore the higher the chance of a compound to engage the target in a topical formulation.
The compounds were manufactured in a modified aqueous cream at pH=6.
The study was conducted with dermatomed abdominal human skin sourced from three skin donors using 2 cm2 Franz diffusion cells. The receiving fluid consisted of Bovine serum albumin (4% w/v) in 0.1% w/v sodium azide in Phospate Buffer Saline and was heated at 37° C. in order to obtain 32° C. at the skin surface. The cream formulation was applied on the donor side at a 10 mg dose, i.e. 5 mg/cm^2. The samples taken at the following time points: t=0, 3, 6, 9 and 24 h. The receiver samples were then assayed using a method based upon protein precipitation with acetonitrile followed by LC/MS/MS analysis. The percutaneous flux (in ng/cm^2/hr) was determined using the individual API (in a multiple composition) that had permeated into the receiver compartment over 24 hrs per cm^2.

[2] = system: Experimental Autoimmune Encephalomyelitis (EAE); assay: EAE studies (Experimental Autoimmune Encephalomyelitis); assay type: in vivo, mice of the C57BL/6 (B6) strain; conditions: orally twice a day from day 0; for EAE onset: 30 mg/kg
[3] = molecular target: T2, Human RORγ Ligand Binding Domain (RORγ-LBD) (Homo sapiens, UniProt P51449); assay: Dual Fluorescence Energy Transfer (FRET) assay, RORγ-LBD / SRC1(2) co-activator peptide interaction; assay type: biochemical; conditions: mean of multiple test results if tested more than once; read-out: pIC50 in the dual FRET assay (converted)
T2 construct: made in house; host or cells: E. coli BL21(DE3), modified pET21a
T2 sequence (P51449 263-518): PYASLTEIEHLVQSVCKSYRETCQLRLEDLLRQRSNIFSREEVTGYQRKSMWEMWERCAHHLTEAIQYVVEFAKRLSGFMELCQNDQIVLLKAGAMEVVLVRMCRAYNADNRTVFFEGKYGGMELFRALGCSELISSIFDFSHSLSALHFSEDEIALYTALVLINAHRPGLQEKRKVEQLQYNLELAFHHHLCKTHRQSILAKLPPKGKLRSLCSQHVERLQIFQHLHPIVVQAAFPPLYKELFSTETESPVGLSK
Source text: This assay is based on the knowledge that nuclear receptors interact with cofactors (transcription factors) in a ligand dependent manner. RORγ is a typical nuclear receptor in that it has an AF2 domain in the ligand binding domain (LBD) which interacts with co-activators.
The assay measures ligand-mediated interaction of the co-activator peptide with the purified bacterial-expressed RORγ ligand binding domain (RORγ-LBD) to indirectly assess ligand binding. RORγ has a basal level of interaction with the co-activator SRC1(2) in the absence of ligand, thus it is possible to find ligands that inhibit or enhance the RORγ/SRC1(2) interaction.
Human RORγ Ligand Binding Domain (RORγ-LBD) was expressed in E.coli strain BL21(DE3) as an amino-terminal polyhistidine tagged fusion protein. DNA encoding this recombinant protein was sub-cloned into a modified pET21a expression vector (Novagen).
Approximately 50 g E. coli cell pellet was resuspended in 300 mL of lysis buffer (30 mM imidazole pH 7.0 and 150 mM NaCl). Cells were lysed by sonication and cell debris was removed by centrifugation for 30 minutes at 20,000 g at 4° C. […] The clarified lysate was loaded onto a column (XK-26) packed with ProBond Nickel Chelating resin (Invitrogen), pre-equilibrated with 30 mM imidazole pH 7.0 and 150 mM NaCl. After washing to baseline absorbance with the equilibration buffer, the column was developed with a gradient from 30 to 500 mM imidazole pH 7.0. Column fractions containing the RORγ-LBD protein were pooled and concentrated to a volume of 5 mls. The concentrated protein was loaded onto a Superdex 200 column pre-equilibrated with 20 mM Tris-CI pH 7.2 and 200 mM NaCl. The fractions containing the desired RORγ-LBD protein were pooled together.
Purified RORγ-LBD was buffer exchanged by exhaustive dialysis [3 changes of at least 20 volumes (>8000x)] against PBS [100mM NaPhosphate, pH 8 and 150mM NaC1]. […] The modified protein was distributed into aliquots, frozen on dry ice and stored at −80° C. The biotinylated RORγ-LBD was subjected to mass spectrometric analysis to reveal the extent of modification by the biotinylation reagent.
An appropriate amount of Europium labeled Streptavidin was then added to the biotinylated SRC1(2) solution in a tube to give a final concentration of 10 nM. The tube was inverted gently and incubated for 15 minutes at room temperature. Twenty-fold excess biotin from the 10 mM stock solution was added and the tube was inverted gently and incubated for 10 minutes at room temperature.
Preparation of APC labeled RORγ-LBD: biotinylated RORγ-LBD solution was prepared by adding an appropriate amount of biotinylated RORγ-LBD from the stock solution to a buffer containing 10 mM of freshly added DTT from solid to give a final concentration of 40 nM. An appropriate amount of APC labeled Streptavidin was then added to the biotinylated RORγ-LBD solution in a tube to give a final concentration of 20 nM. The tube was inverted gently and incubated for 15 minutes at room temperature. Twenty-fold excess biotin from the 10 mM stock solution was then added and the tube was inverted gently and incubated for 10 minutes at room temperature.
The reaction mixtures were incubated for 5 minutes. […] The plates were incubated for lhr and then read on ViewLux in Lance mode for EU/APC.

[4] = table with percutaneous study, read-out: Th17 cell differentiation assay IC50
[5] = table with percutaneous study, read-out: Th17 cell differentiation assay pIC50 (converted)
[6] = 72 h, mean pIC50, IL-17 ELISA, 3 days culture, detection limit of the assay 5, read-out: pIC50 in the Th17 cell differentiation assay (converted)

Row | IC50 (Mouse CD4+ cells; [4]) | IC50 (Mouse CD4+ cells; [5]) | Flux over 24 hrs [1] | SMILES | IC50 (Mouse CD4+ cells; [6]) | IC50 [3] | EAE onset [2] | also measured
1 |  |  |  | Cc1cnc(C(=O)Nc2cc(F)cc(CN3CCN(C(=O)C4CCCC4)[C@@H](C)C3)c2C)cn1 [Example 36, (S)-N-(3-((4-(cyclopentanecarbonyl)-3-methylpiperazin-1-yl)methyl)-5-fluoro-2-methylphenyl)-5-methylpyrazine-2-carboxamide] |  |  |  | IC50 (RORγ): > 10000 nM
2 | 0.0114 µg/mL | 25.1 nM | 7.73 ng/cm^2/hr | Cc1ccc(C(=O)Nc2cc(F)cc(CN3CCN(C(=O)CC4CCC4)[C@@H](C)C3)c2C)cn1 [Example 163, (S)-N-(3-((4-(2-cyclobutylacetyl)-3-methylpiperazin-1-yl)methyl)-5-fluoro-2-methylphenyl)-6-methylnicotinamide] |  |  |  | 
3 | 0.0093 µg/mL | 20 nM | 3.12 ng/cm^2/hr | Cc1ccc(C(=O)Nc2cc(F)cc(CN3CCN(C(=O)C4CC(C)(C)C4)[C@@H](C)C3)c2C)cn1 [Example 164, (S)-N-(3-((4-(3,3-dimethylcyclobutanecarbonyl)-3-methylpiperazin-1-yl)methyl)-5-fluoro-2-methylphenyl)-6-methylnicotinamide] |  |  |  | 
4 |  |  |  | Cc1ccc(C(=O)Nc2cc(Cl)cc(CN3CCN(C(=O)CC4CC4)[C@@H](C)C3)c2C)cn1 [Example 184, (S)-N-(5-chloro-3-((4-(2-cyclopropylacetyl)-3-methylpiperazin-1-yl)methyl)-2-methylphenyl)-6-methylnicotinamide] | ~83.2 nM | ~200 nM |  | EAE onset and clinical score ([2]; effect starting at 3, 10 or 30 mg/kg): delay EAE onset and lower clinical score
5 |  |  |  | Cc1ncc(C(=O)Nc2cc(Cl)cc(CN3CCN(C(=O)[C@H]4C[C@@H](C)C4)[C@@H](C)C3)c2C)cn1 [Example 190, N-(5-chloro-2-methyl-3-(((S)-3-methyl-4-((cis)-3-methylcyclobutanecarbonyl)piperazin-1-yl)methyl)phenyl)-2-methylpyrimidine-5-carboxamide, trifluoroacetic acid salt] | ~12.9 nM | ~158 nM | delay EAE onset | 
6 |  |  |  | Cc1ncc(C(=O)Nc2cc(Cl)cc(CN3CCN(C(=O)[C@H]4C[C@H](C)C4)[C@@H](C)C3)c2C)cn1 [Example 191, N-(5-chloro-2-methyl-3-(((S)-3-methyl-4-((trans)-3-methylcyclobutanecarbonyl)piperazin-1-yl)methyl)phenyl)-2-methylpyrimidine-5-carboxamide, trifluoroacetic acid salt] | ~26.3 nM | ~251 nM | delay EAE onset | 
